Test results from PubChem BioAssay AID200 (DTP/NCI, 2004).
Where “and” joins values, the source holds several entries; their conditions need not be identical. Identical values can stand only once. Toxic doses and inconclusive results are not listed. *1 amine or outer side, *2 acyl side, *3 side chain or, on linkers, in order; H or OH if unused. Where a SMILES comes first, the peptide text is derived from it. Bridges are numbered along the chain shown (N, C = ends). Roman numbers before positions name the chains, in order. [ ]: non-standard residue; d: D form. Actinocin(9to1) = Cc1c2oc3c(C)ccc(C(=O)[*:1])c3nc-2c(C(=O)[*:2])c(N)c1=O; NMeA = CN[CH](C)C(=O)O; Sar = CNCC(=O)O

Tested on: B6C3F1 mice, B16 melanoma ip, median survival T/C
Test: NCI In Vivo Anticancer Drug Screen. Data for tumor model B16 Melanoma (intraperitoneal) in B6C3F1 mice
Details: endpoint: median survival time, higher = longer survival
Experimental: The antitumor activity of compounds was measured in mice bearing transplantable tumors. Survival or tumor size were measured and the results are expressed as the measurement made in the treated group (T) divided by the measurement made in the vehicle treated control group (C). The tumor model used in this assay is B16 Melanoma (intraperitoneal) in B6C3F1 mice

[1] = dose: 25.0 mg/kg/injection, schedule: Q01DX009 (ip), vehicle: Klucel (hydroxypropylcellulose) (HPC)
[2] = dose: 50.0 mg/kg/injection, schedule: Q01DX009 (ip), vehicle: Klucel (hydroxypropylcellulose) (HPC)
[3] = dose: 100.0 mg/kg/injection, schedule: Q01DX009 (ip), vehicle: Klucel (hydroxypropylcellulose) (HPC)
[4] = dose: 200.0 mg/kg/injection, schedule: Q01DX009 (ip), vehicle: Klucel (hydroxypropylcellulose) (HPC)
[5] = dose: 400.0 mg/kg/injection, schedule: Q01DX009 (ip), vehicle: Klucel (hydroxypropylcellulose) (HPC)
[6] = dose: 50.0 mg/kg/injection, schedule: Q01DX009 (ip), vehicle: saline with Tween-80
[7] = dose: 100.0 mg/kg/injection, schedule: Q01DX009 (ip), vehicle: saline with Tween-80
[8] = dose: 25.0 mg/kg/injection, schedule: Q01DX009 (ip), vehicle: saline with Tween-80

Q: What does the source list for CCCCCCCOc1ccc(C(=O)O)cc1?
A: T/C (dose: 12.5 mg/kg/injection, schedule: Q01DX009 (ip), vehicle: Klucel (hydroxypropylcellulose) (HPC)): 106 % of control; T/C [1]: 108 % of control; T/C [2]: 114 % of control

Q: NC(Cc1ccc(O)c(Cl)c1)C(=O)O (stereo unspecified) was tested. Which T/C (dose: 100.0 mg/kg/injection, schedule: Q01DX009 (ip), vehicle: saline) did it give?
A: 93 % of control

Q: What about the T/C (dose: 200.0 mg/kg/injection, schedule: Q01DX009 (ip), vehicle: saline) of the same compound?
A: 98 % of control

Q: With NC(N)=NS(=O)(=O)c1ccc(NCc2c3ccccc3nc3ccccc23)cc1 as the compound, how does the T/C [1] read?
A: 159 % of control

Q: And the T/C [2]?
A: 184 % of control

Q: What about the T/C [3] of the same compound?
A: 213 % of control

Q: What about the T/C [4] of the same compound?
A: 238 % of control

Q: What about the T/C [5] of the same compound?
A: 238 % of control

Q: What about the T/C (dose: 800.0 mg/kg/injection, schedule: Q01DX009 (ip), vehicle: Klucel (hydroxypropylcellulose) (HPC)) of the same compound?
A: 250 % of control

Q: How did the T/C (dose: 1.0 mg/kg/injection, schedule: Q01DX009 (ip), vehicle: saline) turn out when COc1cccc2c1C(=O)c1c(O)c3c(c(O)c1C2=O)C[C@@](O)(/C(CO)=N/NC(=O)c1ccc(Cl)c(Cl)c1)C[C@@H]3OC1CC(N)C(O)C(C)O1 (stereo partly specified) was run?
A: 188 % of control

Q: What about the T/C (dose: 2.0 mg/kg/injection, schedule: Q01DX009 (ip), vehicle: saline) of the same compound?
A: 190 % of control

Q: What about the T/C (dose: 4.0 mg/kg/injection, schedule: Q01DX009 (ip), vehicle: saline) of the same compound?
A: 250 % of control

Q: What about the T/C (dose: 8.0 mg/kg/injection, schedule: Q01DX009 (ip), vehicle: saline) of the same compound?
A: 267 % of control

Q: And the T/C (dose: 16.0 mg/kg/injection, schedule: Q01DX009 (ip), vehicle: saline)?
A: 357 % of control

Q: What does the source list for O=C1N[C@H]2[C@H](CS[C@H]2CCCCC(=O)N(CCP(c2ccccc2)c2ccccc2)CCP(c2ccccc2)c2ccccc2)N1?
A: T/C [1]: 110 % of control and 97 % of control; T/C [2]: 109 % of control and 101 % of control; T/C [3]: 105 % of control; T/C [4]: 113 % of control; T/C [5]: 101 % of control

Q: What does the source list for CC(C)(C)OC(=O)NC(CO)C(=O)O (stereo unspecified)?
A: T/C [6]: 95 % of control; T/C [7]: 95 % of control; T/C (dose: 200.0 mg/kg/injection, schedule: Q01DX009 (ip), vehicle: saline with Tween-80): 90 % of control

Q: Which T/C (dose: 0.25 mg/kg/injection, schedule: Q01DX009 (ip), vehicle: saline + alcohol) does the source give for COC1/C=C/C=C(/C)Cc2cc(O)c(Cl)c(c2)N(C)C(=O)CC(OC(=O)C(C)C)C2(C)OC2C(C)C2CC1(O)NC(=O)O2 (stereo unspecified) here?
A: 155 % of control

Q: And the T/C (dose: 0.5 mg/kg/injection, schedule: Q01DX009 (ip), vehicle: saline + alcohol)?
A: 150 % of control

Q: What about the T/C (dose: 25.0 micrograms/kg/injection, schedule: Q01DX009 (ip), vehicle: saline + alcohol) of the same compound?
A: 120 % of control

Q: What about the T/C (dose: 400.0 micrograms/kg/injection, schedule: Q01DX009 (ip), vehicle: saline + alcohol) of the same compound?
A: 151 % of control

Q: For CC(C)C(NC(=O)OC(C)(C)C)C(=O)O (stereo unspecified), which T/C [3] is on record?
A: 90 % of control

Q: With C[C@H](CCC[C@H](C)OS(=O)(=O)c1ccccc1)OS(=O)(=O)c1ccccc1 as the compound, how does the T/C (dose: 12.5 mg/kg/injection, schedule: Q01DX009 (ip), vehicle: saline with Tween-80) read?
A: 122 % of control and 101 % of control

Q: What about the T/C [8] of the same compound?
A: 207 % of control and 97 % of control

Q: And the T/C (dose: 400.0 mg/kg/injection, schedule: Q01DX009 (ip), vehicle: saline with Tween-80)?
A: 194 % of control

Q: What does the source list for CC[C@](O)(C(=O)O)c1cc2n(c(=O)c1CO)Cc1cc3ccccc3nc1-2?
A: T/C (dose: 0.75 mg/kg/injection, schedule: Q01DX009 (ip), vehicle: water): 117 % of control; T/C (dose: 1.5 mg/kg/injection, schedule: Q01DX009 (ip), vehicle: water): 154 % of control; T/C (dose: 3.0 mg/kg/injection, schedule: Q01DX009 (ip), vehicle: water): 169 % of control

Q: What does the source list for Cc1c(-c2ccc(-c3ccccc3F)cc2)nc2ccc(F)cc2c1C(=O)O?
A: T/C (dose: 6.25 mg/kg/injection, schedule: Q01DX009 (ip), vehicle: water): 118 % of control and 102 % of control; T/C (dose: 12.5 mg/kg/injection, schedule: Q01DX009 (ip), vehicle: water): 107 % of control; T/C (dose: 25.0 mg/kg/injection, schedule: Q01DX009 (ip), vehicle: water): 124 % of control

Q: With Cc1c2oc3c(C)ccc(C(=O)NC4C(=O)NC(C(C)C)C(=O)N5CCCC5C(=O)N(C)CC(=O)N(C)C(C)C(=O)OC4C)c3nc-2c(C(=O)NC2C(=O)NC(C(C)C)C(=O)N3CCCC3C(=O)N(C)CC(=O)N(C)C(C)C(=O)OC2C)c(N)c1=O (stereo unspecified) (I: TVP[Sar][NMeA] / II: TVP[Sar][NMeA]; ester I:1-I:C, II:1-II:C; linker I:N-II:N via Actinocin(9to1); configuration not given here) as the compound, how does the T/C (dose: 0.25 mg/kg/injection, schedule: Q04DX003 (ip), vehicle: saline + alcohol) read?
A: 116 % of control

Q: And the T/C (dose: 0.5 mg/kg/injection, schedule: Q04DX003 (ip), vehicle: saline + alcohol)?
A: 118 % of control

Q: And the T/C (dose: 1.0 mg/kg/injection, schedule: Q04DX003 (ip), vehicle: saline + alcohol)?
A: 112 % of control and 113 % of control

Q: And the T/C (dose: 2.0 mg/kg/injection, schedule: Q04DX003 (ip), vehicle: saline + alcohol)?
A: 116 % of control and 104 % of control

Q: And the T/C (dose: 4.0 mg/kg/injection, schedule: Q04DX003 (ip), vehicle: saline + alcohol)?
A: 115 % of control

Q: With O=C(NC(CO)C(=O)O)OCc1ccccc1 (stereo unspecified) as the compound, how does the T/C [8] read?
A: 97 % of control

Q: And the T/C [6]?
A: 98 % of control

Q: And the T/C [7]?
A: 87 % of control and 102 % of control
